Assay results taken from US10988433B2, “Cyclohexyl GPR40 agonists for the treatment of type II diabetes” (Janssen Pharmaceutica NV, priority 2016, dated 2021).

Tests used:
human GPR40 = target: T1, human GPR40 (Homo sapiens, UniProt O14842); assay: GPR40 calcium flux assay, HEK293 cells stably expressing human GPR40; format: cell-based; conditions: transfected HEK293 cells stably expressing human GPR40, Fluo 8 dye, read-out: hGPR40 Ca2+ Assay EC50
T1 construct: expressed in transfected cells
Experimental: (§1) Compounds were tested in a calcium flux assay using transfected HEK293 cells stably expressing either human GPR40 or rat GPR40. Human GPR40 expressing cells were cultured in DMEM-High Glucose media supplemented with 10% fetal bovine serum, 1×L-Glutamine, 1×Penicillin/Streptomycin and 500 μg/mL G418. Rat GPR40 expressing cells were cultured in DMEM-High Glucose media supplemented with 10% fetal bovine serum and 1 μg/mL puromycin. Cells were plated into poly-D-lysine coated 384-well plates and cultured overnight in a 37° C. humidified tissue culture incubator under 5% CO2/[…] atmosphere. On the day of the experiment, the culture media was replaced with assay buffer (HBSS, 20 mM HEPES, 0.1% BSA) and the cells incubated at 37° C. for 1 h. Calcium-sensitive fluorescent dye (Fluo 8 No-Wash Calcium Dye, ABD Bioquest) was then added and the cells incubated for another 30 min at 37° C. followed by 15 min at room temperature while protected from the light. The cell plate and a plate of diluted compounds of Formula (I) were loaded into a fluorescent plate reader that added compounds onto the cells while measuring the fluorescence intensity of each well. The plate reader recorded fluorescence intensity at 1 second intervals for 8 min and provided the data for analysis in an Excel format. EC50 values were calculated using Prism (GraphPad) software.

rat GPR40 = target: T2, rat GPR40 (Rattus norvegicus, UniProt Q8K3T4); assay: GPR40 calcium flux assay, HEK293 cells stably expressing rat GPR40; format: cell-based; conditions: transfected HEK293 cells stably expressing rat GPR40, Fluo 8 dye, read-out: rGPR40 Ca2+ Assay EC50
T2 construct: expressed in transfected cells
T2 sequence (Q8K3T4 whole entry): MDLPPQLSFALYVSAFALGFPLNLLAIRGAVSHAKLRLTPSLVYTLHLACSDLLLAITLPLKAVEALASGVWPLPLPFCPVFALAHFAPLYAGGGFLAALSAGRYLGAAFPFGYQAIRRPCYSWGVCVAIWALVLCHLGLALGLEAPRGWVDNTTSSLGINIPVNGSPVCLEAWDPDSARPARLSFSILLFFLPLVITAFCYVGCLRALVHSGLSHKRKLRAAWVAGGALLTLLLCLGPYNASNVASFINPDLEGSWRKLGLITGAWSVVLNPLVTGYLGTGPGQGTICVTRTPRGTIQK
Experimental: as §1

T1 sequence (O14842 whole entry): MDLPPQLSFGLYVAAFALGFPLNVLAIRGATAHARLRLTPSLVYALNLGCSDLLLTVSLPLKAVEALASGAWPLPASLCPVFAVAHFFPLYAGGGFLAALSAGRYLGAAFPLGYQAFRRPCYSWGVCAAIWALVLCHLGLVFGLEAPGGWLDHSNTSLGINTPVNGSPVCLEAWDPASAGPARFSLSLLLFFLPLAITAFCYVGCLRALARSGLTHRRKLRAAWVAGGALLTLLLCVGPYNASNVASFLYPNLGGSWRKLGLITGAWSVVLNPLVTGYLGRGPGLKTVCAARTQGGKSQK

Row | EC50 (human GPR40) | EC50 (rat GPR40) | Structure (SMILES)
1 | 2.2 nM | 5.5 nM | COc1ccc(F)c(C2CCC(OCc3cccc([C@H](C4CC4)C(C)(F)C(=O)O)c3)CC2)c1 (stereo partly drawn) [Cpd 78, (3S)-3-Cyclopropyl-2-fluoro-3-(3-(((4-(2-fluoro-5-methoxyphenyl)cyclohexyl)oxy)methyl)phenyl)-2-methylpropanoic acid]
2 | 0.18 nM | 0.71 nM | COc1ccc(F)c(C2=CCC(COc3cccc([C@H](C4CC4)[C@@](C)(F)C(=O)O)c3)CC2)c1 (stereo partly drawn) [Cpd 76, (2R,3S)-3-Cyclopropyl-2-fluoro-3-(3-((2′-fluoro-5′-methoxy-2,3,4,5-tetrahydro-[1,1′-biphenyl]-4-yl)methoxy)phenyl)-2-methylpropanoic acid]
3 | 133 nM | 346 nM | COc1ccc(F)c(C2CCC(COc3cccc(C(CC(=O)O)C4CC4)c3)CC2)c1 (stereo not shown) [Cpd 55, 3-Cyclopropyl-3-(3-(((1 s,4 s)-4-(2-fluoro-5-methoxyphenyl)cyclohexyl)methoxy)phenyl)propanoic acid]
4 | 244 nM | 1110 nM | COc1ccnc(C2CCC(COc3cc([C@@H](CC(=O)O)C4CC4)ccn3)CC2)n1 (stereo partly drawn) [Cpd 49, (S)-3-Cyclopropyl-3-(2-((4-(4-methoxypyrimidin-2-yl)cyclohexyl)methoxy)pyridin-4-yl)propanoic acid]
5 | 0.2 nM | 0.4 nM | COc1ccc(F)c([C@H]2CC[C@H](COc3cccc([C@H](C4CC4)[C@H](C)C(=O)O)c3)CC2)c1 [Cpd 52, (2S,3R)-3-cyclopropyl-3-(3-(((1r,4R)-4-(2-fluoro-5-methoxyphenyl)cyclohexyl)methoxy)phenyl)-2-methylpropanoic acid]
6 | 600 nM | 3150 nM | COc1ccc(F)c([C@H]2CC[C@@H](COc3cccc([C@@H](Cc4nnn[nH]4)C4CC4)c3)CC2)c1 [Cpd 39, 5-((S)-2-Cyclopropyl-2-(3-(((1s,4R)-4-(2-fluoro-5-methoxyphenyl)cyclohexyl)methoxy)phenyl)ethyl)-1H-tetrazole]
7 | 2.1 nM | 29.4 nM | COc1cc(C2CCC(COc3cccc([C@@H](CC(=O)O)C4CC4)c3)C(CC(C)C)C2)c(F)cn1 (stereo partly drawn) [Cpd 30, (3S)-3-Cyclopropyl-3-(3-((4-(5-fluoro-2-methoxypyridin-4-yl)-2-isobutylcyclohexyl)methoxy)phenyl)propanoic acid]
8 | 1.9 nM | 2.36 nM | COc1ccc(C(=O)Nc2ccccn2)c(C2CCC(COc3cccc([C@H](C4CC4)C(C)(F)C(=O)O)c3)CC2)c1 (stereo partly drawn) [Cpd 71, (3S)-3-Cyclopropyl-2-fluoro-3-(3-((4-(5-methoxy-2-(pyridin-2-ylcarbamoyl)phenyl)cyclohexyl)methoxy)phenyl)-2-methylpropanoic acid]
9 | 3.7 nM | 17.3 nM | COc1cc(C2CCC(COc3cccc([C@@H](CC(=O)O)C4CC4)c3)C(C)C2)c(F)cn1 (stereo partly drawn) [Cpd 33, (3S)-3-Cyclopropyl-3-(3-((4-(5-fluoro-2-methoxypyridin-4-yl)-2-methylcyclohexyl)methoxy)phenyl)propanoic acid]
10 | 62.4 nM | 282 nM | COc1ccc(F)c([C@H]2CC[C@H](COc3ccnc(C(CC(=O)O)C4CC4)c3)CC2)c1 (stereo partly shown) [Cpd 34, 3-Cyclopropyl-3-(4-(((1r,4r)-4-(2-fluoro-5-methoxyphenyl)cyclohexyl)methoxy)pyridin-2-yl)propanoic acid]
11 | 1500 nM |  | COc1ccc(F)c([C@H]2CC[C@@H](COc3cccc(C(CC(=O)O)C4CC4)n3)CC2)c1 (stereo partly shown) [Cpd 14, 3-Cyclopropyl-3-(6-(((1 s,4s)-4-(2-fluoro-5-methoxyphenyl)cyclohexyl)methoxy)pyridin-2-yl)propanoic acid]
12 | 17.9 nM | 40.9 nM | COc1ccc(F)c(C2CCC(COc3cccc([C@@H](CC(=O)O)C4CC4)c3)C(CC(C)C)C2)c1 (stereo partly drawn) [Cpd 29, (3S)-3-Cyclopropyl-3-(3-((4-(2-fluoro-5-methoxyphenyl)-2-isobutylcyclohexyl)methoxy)phenyl)propanoic acid]
13 | 3080 nM |  | COc1cc([C@H]2CC[C@@H](COc3cccc(C(CC(=O)O)C4CC4)n3)CC2)c(F)cn1 (stereo partly shown) [Cpd 16, 3-Cyclopropyl-3-(6-(((1s,4s)-4-(5-fluoro-2-methoxypyridin-4-yl)cyclohexyl)methoxy)pyridin-2-yl)propanoic acid]
14 | 26.1 nM | 54.2 nM | COc1cc([C@H]2CC[C@H](COc3ccnc(C(CC(=O)O)C4CC4)c3)CC2)c(F)cn1 (stereo partly shown) [Cpd 31, 3-Cyclopropyl-3-(4-(((1r,4r)-4-(5-fluoro-2-methoxypyridin-4-yl)cyclohexyl)methoxy)pyridin-2-yl)propanoic acid]
15 | 71.5 nM | 147 nM | COc1ccc(F)c([C@H]2CC[C@@H](CNc3cccc([C@@H](CC(=O)O)C4CC4)c3)CC2)c1 [Cpd 47, (S)-3-cyclopropyl-3-(3-((((1s,4R)-4-(2-fluoro-5-methoxyphenyl)cyclohexyl)methyl)amino)phenyl)propanoic acid]
16 | 82.5 nM | 211 nM | COc1ccc(F)c([C@]2(F)CC[C@H](COc3cccc([C@@H](CC(=O)O)C4CC4)c3)CC2)c1 [Cpd 19, (S)-3-Cyclopropyl-3-(3-(((1r,4S)-4-fluoro-4-(2-fluoro-5-methoxyphenyl)cyclohexyl)methoxy)phenyl)propanoic acid]
17 | 32.6 nM | 86.7 nM | COc1cc([C@H]2CC[C@H](COc3cccc([C@H](C4CC4)[C@](C)(F)C(=O)O)c3)CC2)c(F)cn1 [Cpd 63]
18 | 687 nM | 1320 nM | COc1ccc(F)c([C@H]2CC[C@@H](COc3cccc([C@H](CC(=O)O)C4CC4)c3)CC2)c1 [Cpd 37, (R)-3-Cyclopropyl-3-(3-(((1s,4S)-4-(2-fluoro-5-methoxyphenyl)cyclohexyl)methoxy)phenyl)propanoic acid]
19 | 1.7 nM | 12 nM | CC(F)(C(=O)O)[C@H](c1cccc(OCC2CCC(c3cc(F)ncc3F)CC2)c1)C1CC1 (mixture of isomers) [Cpd 67, (3S)-3-Cyclopropyl-3-(3-((4-(2,5-difluoropyridin-4-yl)cyclohexyl)methoxy)phenyl)-2-fluoro-2-methylpropanoic acid]
20 | 307 nM |  | COc1cc([C@H]2CC[C@@H](COc3cncc(C(CC(=O)O)C4CC4)c3)CC2)c(F)cn1 (stereo partly shown) [Cpd 23, 3-Cyclopropyl-3-(5-(((1s,4s)-4-(5-fluoro-2-methoxypyridin-4-yl)cyclohexyl)methoxy)pyridin-3-yl)propanoic acid]
21 | 377 nM |  | COc1ccc(F)c([C@]2(O)CC[C@H](COc3cccc([C@@H](CC(=O)O)C4CC4)c3)CC2)c1 [Cpd 6, (S)-3-Cyclopropyl-3-(3-(((1r,4S)-4-(2-fluoro-5-methoxyphenyl)-4-hydroxycyclohexyl)methoxy)phenyl)propanoic acid]
22 | 138 nM |  | COc1cc([C@H]2CC[C@H](COc3cccc(C(CC(=O)O)C4CC4)n3)CC2)c(F)cn1 (stereo partly shown) [Cpd 15, 3-Cyclopropyl-3-(6-(((1r,4r)-4-(5-fluoro-2-methoxypyridin-4-yl)cyclohexyl)methoxy)pyridin-2-yl)propanoic acid]
23 | 226 nM |  | COc1ccc(F)c([C@H]2CC[C@@H](COc3cncc(C(CC(=O)O)C4CC4)c3)CC2)c1 (stereo partly shown) [Cpd 18, 3-Cyclopropyl-3-(5-(((1s,4s)-4-(2-fluoro-5-methoxyphenyl)cyclohexyl)methoxy)pyridin-3-yl)propanoic acid]
